Results reported in patent US6858648B2, “Laetispicine and laetispicine analogues, methods of use and preparation” (Fudan University, priority 2002, dated 2005).

Legend:
mouse [1] = experiment: Mouse forced swimming experiment; format: in vivo; settings: for Motionless Time (sec.) X ± SE: 1 hour after dosing, recorded over 4 minutes after 2 minutes adaptation, 10 mice per group; for anti-depression effect compared with Fluoxetine (Prozac): mouse forced swimming, relative to Fluoxetine
Text: Mouse forced swimming experiment is by far the best animal model to screen anti-depression drugs. The experiment is designed to create a despaired situation for a mouse by confining the mouse in a container filled with water. Mouse in water will swim to safety. When the mouse cannot find a way out after it tried in the water in the container, it despaired of swimming. There is psychological difference of different mice in the situation. A calm mouse is still swimming and trying to find a way out of the container, while a despaired mouse swims relatively less (moves less). A depressed mouse despairs easily. The more depressed the mouse, the severer the despair.
In this experiment, sixty mice were divided into 6 groups (10 mice in each group). (Referring to Table 1 and FIG. 2) Each mouse in experiment group 1 (Laetispicine 1) was given Laetispicine 50 milligram/kilogram body weight, each mouse in experiment group 2 (Laetispicine 2) was given Laetispicine 20 milligram/kilogram body weight, each mouse in experiment group 3 (Laetispicine 3) was given Laetispicine 10 milligram/kilogram body weight and each mouse in experiment group 4 (Laetispicine 4) was given Laetispicine 5 milligram/kilogram body weight. Fluoxetine (Prozac) was given 50 milligram/kilogram body weight to each mouse of positive control group (Fluoxetine), and placebo was given to each mouse of negative control group.
After receiving the drugs (or placebo) 1 hour later, mice were put into a glass container with a long and narrow opening. The dimension of the container is 30 cm height, filled with water to 15 cm deep.

mouse [2] = experiment: Mouse acetic acid squirming method; format: in vivo; settings: for inflammation and pain relieving effect compared with aspirin: 20 mg/kg each, mouse acetic acid squirming; for Squirming X ± SE: dose 20 mg/kg, 1 hour before 0.2 ml 1% acetic acid into abdominal cavity, squirmings counted over 10 minutes, male mice
Text: The pain and inflammation relieving effect of Laetispicine has been studied by the mouse acetic acid squirming method. In this study, 30 male mice were selected; each of them weighed 20 grams. These mice were divided randomly into 3 groups: Laetispicine group (10 mice), aspirin group (10 mice), and control group (10 mice). Laetispicine of 20 milligram/kilogram body weight in vehicle solution was given to each of the ten mice in Laetispicine group. For a positive control, aspirin of 20 milligram/kilogram body weight in vehicle solution was given to each of the ten mice in aspirin group. Vehicle solution only was given to ten mice in control group (negative control group). One hour later, each mouse was given 0.2 milliliter of 1% acetic acid solution by injection to its abdominal cavity. After the mouse squirmed first time, every squirming of each of the mouse was counted in a period of 10 minutes.

Row | Compound | effect on mouse depression (in words) (mouse [1]; Table 1 and FIG. 2, 5-50 mg/kg) | Motionless Time (sec.) X ± SE (mouse [1]; dose 5 mg/kg) [s] | Motionless Time (sec.) X ± SE (mouse [1]; dose 10 mg/kg) [s] | Motionless Time (sec.) X ± SE (mouse [1]; dose 20 mg/kg) [s] | Motionless Time (sec.) X ± SE (mouse [1]; dose 50 mg/kg) [s] | anti-depression effect compared with Fluoxetine (Prozac) (mouse [1]) | anti-depression effect compared with Fluoxetine (Prozac) (mouse [1]; listed as Lactispicine) [times] | inflammation and pain relieving effect compared with aspirin (mouse [2]) | inflammation and pain relieving effect compared with aspirin (mouse [2]; listed as Lactispicine) | Squirming X ± SE (mouse [2])
1 | CC(C)CNC(=O)/C=C/C=C/CCC/C=C/Cc1ccc2c(c1)OCO2 [Laetispicine, N-isobutyl-11-(3,4-methylendioxyphenyl)-2E,4E,9E-undecatrienamide] | significantly reduced the mouse depression | 158.78 ± 5.13 | 131.0 ± 8.86 | 50.11 ± 12.69 | 17.67 ± 5.33 | five times effective than that of Prozac | 5 | equivalent to that of aspirin | equivalent to the effect of Aspirin | 16.7 ± 4.92
2 | CNCCC(Oc1ccc(C(F)(F)F)cc1)c1ccccc1 (stereo not drawn) [Fluoxetine, reference compound] |  |  |  |  | 113.44 ± 10.10 |  |  |  |  | 
3 | CC(=O)Oc1ccccc1C(=O)O [Aspirin, reference compound] |  |  |  |  |  |  |  |  |  | 16.8 ± 3.43
